Results: BindingDB's records for patent US12338251 (Teligene US, 2025)

Target: Cytochrome P450 3A4 (Homo sapiens, UniProt P08684)
Experiment: CYP Inhibition Assay
Source text: The final concentrations of DMSO and acetonitrile were equal to or less than 0.1%.

Cytochrome P450 3A4, sequence (P08684 whole entry): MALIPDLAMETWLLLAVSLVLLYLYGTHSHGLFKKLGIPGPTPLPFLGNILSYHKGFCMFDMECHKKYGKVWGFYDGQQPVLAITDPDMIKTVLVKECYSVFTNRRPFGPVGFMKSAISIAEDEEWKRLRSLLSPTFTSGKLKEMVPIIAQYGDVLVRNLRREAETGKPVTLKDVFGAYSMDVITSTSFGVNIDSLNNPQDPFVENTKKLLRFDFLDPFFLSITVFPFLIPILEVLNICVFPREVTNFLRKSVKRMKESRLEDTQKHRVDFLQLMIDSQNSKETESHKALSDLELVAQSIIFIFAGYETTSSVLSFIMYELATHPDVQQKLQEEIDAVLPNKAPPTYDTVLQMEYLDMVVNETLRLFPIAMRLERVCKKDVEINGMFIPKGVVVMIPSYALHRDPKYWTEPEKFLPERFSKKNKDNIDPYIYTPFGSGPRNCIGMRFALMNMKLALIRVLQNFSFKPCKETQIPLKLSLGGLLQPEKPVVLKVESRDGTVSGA

An IC50 of 279 µM was found for `CC(=O)CCC(=O)Nc1ncc2cc1O[C@H](C)c1cc(F)ccc1C(=O)N(C)Cc1nn(C)c(C#N)c1-2` [US12338251, Compound 3] in this work.
